Experiments:
[1] = target: T1, KRas-mediated phosphorylation of ERK in MKN1 cells (Homo sapiens, UniProt P01116); test: Inhibition of KRas-mediated phosphorylation of ERK (HTRF), MKN1 cells; type: cell-based; settings: MKN1 cells (KRas WT); HTRF pERK; 3 h incubation
T1 construct: pERK HTRF read-out
Description: Inhibition of KRas Phosphorylation of ERK (HTRF) by Exemplary Compounds of Formula (Ia) or (Ib)
Cisbio HTRF Advanced pERK Assay Catalog #64AERPEH • Cells: MKN1, PSN1 • Procedure: • 1. Day 1: Seed 6,000 cells/well −25 μl/well in 384-well white solid bottom plate; RPM1_10% FBS. Incubate overnight at 37 °C/5% CO2. • 2.

[2] = target: T2, KRas-mediated phosphorylation of ERK in A549 cells (Homo sapiens, UniProt P01116, G12S); test: Inhibition of KRas-mediated phosphorylation of ERK (HTRF), A549 cells; type: cell-based; settings: HTRF pERK, 3 h incubation
T2 construct: pERK HTRF read-out

[3] = target: T3, KRas-mediated phosphorylation of ERK in H358 cells (Homo sapiens, UniProt P01116, G12C); test: Inhibition of KRas-mediated phosphorylation of ERK (HTRF), H358 cells; type: cell-based; settings: HTRF pERK, 3 h incubation
T3 construct: pERK HTRF read-out

[4] = target: T4, KRas G12S (Homo sapiens, UniProt P01116, G12S); test: KRas binding assay, TR-FRET displacement of Cy5 labelled tracer; settings: 60-minute incubation at room temperature, 1% DMSO, pH 7.5
T4 construct: Biotinylated KRas (corresponding to amino acids 1-169, produced at Accelegan Inc.); biotin (biotinylated); purchased Accelegan Inc
How it was run: (§1)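 Final conditions: 1% DMSO, pH 7.5 HEPES buffer, 60 min, room temperature. Protein: biotin-KRas 1-169 with terbium streptavidin. Output: IC50, four-parameter fit of POC.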

[5] = target: T5, KRas WT (Homo sapiens, UniProt P01116); test: as above; settings: 60-minute incubation at room temperature, 1% DMSO, pH 7.5
T5 construct: Biotinylated KRas (corresponding to amino acids 1-169, produced at Accelegan Inc.); biotin (biotinylated); purchased Accelegan Inc
How it was run: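 Assay buffer was HEPES (50 mM, pH 7.5) with MgCl2 (5 mM), DTT (1 mM) and Tween-20 (0.005%). Biotinylated KRas spanning residues 1-169 met tracer, terbium streptavidin and compound (1% DMSO, final) for 60 minutes at ambient temperature before reading. POC values were fitted for IC50.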

[6] = target: T6, KRas G12C (Homo sapiens, UniProt P01116, G12C); test: as above; settings: 60-minute incubation at room temperature, 1% DMSO, pH 7.5
T6 construct: Biotinylated KRas (corresponding to amino acids 1-169, produced at Accelegan Inc.); biotin (biotinylated); purchased Accelegan Inc
How it was run: as §1

T5 sequence (P01116 1-169 isoform P01116-2): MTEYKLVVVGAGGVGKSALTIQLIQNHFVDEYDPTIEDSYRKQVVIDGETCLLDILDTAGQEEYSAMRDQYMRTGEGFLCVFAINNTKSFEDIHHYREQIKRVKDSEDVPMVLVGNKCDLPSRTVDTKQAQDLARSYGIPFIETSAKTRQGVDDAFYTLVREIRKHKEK
T6 sequence (P01116 1-169 isoform P01116-2 G12C): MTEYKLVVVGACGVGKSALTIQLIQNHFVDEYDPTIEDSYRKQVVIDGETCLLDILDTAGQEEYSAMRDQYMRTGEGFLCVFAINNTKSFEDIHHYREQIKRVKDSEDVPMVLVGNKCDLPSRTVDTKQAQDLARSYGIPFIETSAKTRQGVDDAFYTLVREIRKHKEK
T3 sequence (P01116 1-188 isoform P01116-2 G12C): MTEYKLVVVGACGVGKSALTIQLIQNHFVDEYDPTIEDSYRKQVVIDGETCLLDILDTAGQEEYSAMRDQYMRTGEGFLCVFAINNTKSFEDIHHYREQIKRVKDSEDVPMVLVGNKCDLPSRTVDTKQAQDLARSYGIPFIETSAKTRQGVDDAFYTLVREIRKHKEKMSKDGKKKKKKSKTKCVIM
T1 sequence (P01116 1-188 isoform P01116-2): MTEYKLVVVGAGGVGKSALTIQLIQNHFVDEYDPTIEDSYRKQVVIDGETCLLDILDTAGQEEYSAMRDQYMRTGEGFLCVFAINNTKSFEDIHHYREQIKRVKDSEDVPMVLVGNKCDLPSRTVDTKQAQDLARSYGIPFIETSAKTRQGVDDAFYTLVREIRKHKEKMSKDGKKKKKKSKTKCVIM
T4 sequence (P01116 1-169 isoform P01116-2 G12S): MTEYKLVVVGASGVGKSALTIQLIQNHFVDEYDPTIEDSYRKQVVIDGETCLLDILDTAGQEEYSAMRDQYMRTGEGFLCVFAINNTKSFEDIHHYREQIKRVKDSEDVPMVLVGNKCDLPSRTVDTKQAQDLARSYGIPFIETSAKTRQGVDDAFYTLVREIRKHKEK
T2 sequence (P01116 1-188 isoform P01116-2 G12S): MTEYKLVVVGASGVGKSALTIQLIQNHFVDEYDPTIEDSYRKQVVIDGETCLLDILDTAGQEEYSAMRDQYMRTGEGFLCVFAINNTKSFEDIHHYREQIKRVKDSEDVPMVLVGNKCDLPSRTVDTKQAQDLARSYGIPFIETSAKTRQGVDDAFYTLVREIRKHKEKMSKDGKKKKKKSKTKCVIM

| IC50 [1] [nM] | IC50 [2] [nM] | IC50 [3] [nM] | IC50 [4] [nM] | IC50 [5] [nM] | IC50 [6] [nM] | SMILES |
| --- | --- | --- | --- | --- | --- | --- |
| 62 | 4 | 3 | 5 | 9 | 6 | Cc1ccn(C(=O)C2CCCN(c3nc(OC[C@@]45CCCN4C[C@H](F)C5)nc4c(F)c(-c5ccc(F)c6sc(N)c(C#N)c56)c(C(F)(F)F)cc34)CC2)n1 (stereo partly drawn) [Example 272, 2-amino-7-fluoro-4-(8-fluoro-2-(((2R,7aS)-2-fluorotetrahydro-1H-pyrrolizin-7a(5H)-yl)methoxy)-4-(4-(3-methyl-1H-pyrazole-1-carbonyl)azepan-1-yl)-6-(trifluoromethyl)quinazolin-7-yl)benzo[b]thiophene-3-carbonitrile] |
| 1360 | 6550 | 808 | 1590 | 195 | 13 | CCc1c(F)ccc2cc(O)cc(-c3ncc4c(N5CCC(C(=O)Oc6ccccc6)CC5)nc(OC[C@@]56CCCN5C[C@H](F)C6)nc4c3F)c12 [Example 39, phenyl 1-(7-(8-ethyl-7-fluoro-3-hydroxynaphthalen-1-yl)-8-fluoro-2-(((2R,7aS)-2-fluorotetrahydro-1H-pyrrolizin-7a(5H)-yl)methoxy)pyrido[4,3-d]pyrimidin-4-yl)piperidine-4-carboxylate] |
| 593 | 381 | 1170 | 25 | 25 | 15 | Cc1ccn(C(=O)CCCCNc2nc(OC[C@@]34CCCN3C[C@H](F)C4)nc3c(F)c(-c4ccc(F)c5sc(N)c(C#N)c45)c(Cl)cc23)n1 [Example 262, 2-amino-4-(6-chloro-8-fluoro-2-(((2R,7aS)-2-fluorotetrahydro-1H-pyrrolizin-7a(5H)-yl)methoxy)-4-((5-(3-methyl-1H-pyrazol-1-yl)-5-oxopentyl)amino)quinazolin-7-yl)-7-fluorobenzo[b]thiophene-3-carbonitrile] |
| 156 | 806 | 391 | 77 | 39 | 48 | N#Cc1c(N)sc2c(F)ccc(-c3c(Cl)cc4c(N5CCN(S(=O)(=O)n6ccnn6)CC5)nc(OC[C@@]56CCCN5C[C@H](F)C6)nc4c3F)c12 [Example 252, 4-(4-(4-((1H-1,2,3-triazol-1-yl)sulfonyl)piperazin-1-yl)-6-chloro-8-fluoro-2-(((2R,7aS)-2-fluorotetrahydro-1H-pyrrolizin-7a(5H)-yl)methoxy)quinazolin-7-yl)-2-amino-7-fluorobenzo[b]thiophene-3-carbonitrile] |
| 363 | 10 | 26 | < 2 | 11 | < 2 | Cc1ccn(C(=O)CCCN(C)c2nc(OC[C@@]34CCCN3C[C@H](F)C4)nc3c(F)c(-c4ccc(F)c5sc(N)c(C#N)c45)c(Cl)cc23)n1 [Example 141, 2-amino-4-(6-chloro-8-fluoro-2-(((2R,7aS)-2-fluorotetrahydro-1H-pyrrolizin-7a(5H)-yl)methoxy)-4-(methyl (4-(3-methyl-1H-pyrazol-1-yl)-4-oxobutyl)amino)quinazolin-7-yl)-7-fluorobenzo[b]thiophene-3-carbonitrile] |
| 868 | > 10000 | 4600 | 371 | 165 | 623 | CCc1c(F)ccc2cc(O)cc(-c3ncc4c(N5CCC(C(=O)NC(C)=O)CC5)nc(OC[C@@]56CCCN5C[C@H](F)C6)nc4c3F)c12 [Example 212, N-acetyl-1-(7-(8-ethyl-7-fluoro-3-hydroxynaphthalen-1-yl)-8-fluoro-2-(((2R,7aS)-2-fluorotetrahydro-1H-pyrrolizin-7a(5H)-yl)methoxy)pyrido[4,3-d]pyrimidin-4-yl)piperidine-4-carboxamide] |
| 318 | 16 | 15 | 3 | 30 | 3 | N#Cc1c(N)sc2c(F)ccc(-c3c(Cl)cc4c(N5CCC(C(=O)Oc6cccnc6)CC5)nc(OC[C@@]56CCCN5C[C@H](F)C6)nc4c3F)c12 [Example 296, pyridin-3-yl 1-(7-(2-amino-3-cyano-7-fluorobenzo[b]thiophen-4-yl)-6-chloro-8-fluoro-2-(((2R,7aS)-2-fluorotetrahydro-1H-pyrrolizin-7a(5H)-yl)methoxy)quinazolin-4-yl)piperidine-4-carboxylate] |
| 12 | 77 | 34 | 6 | 10 | 5 | CCc1c(F)ccc2cc(O)cc(-c3ncc4c(N5CCCCC(C(=O)n6ccc(C)n6)C5)nc(OC[C@@]56CCCN5C[C@H](F)C6)nc4c3F)c12 (stereo partly drawn) [Example 68, (1-(7-(8-ethyl-7-fluoro-3-hydroxynaphthalen-1-yl)-8-fluoro-2-(((2R,7aS)-2-fluorotetrahydro-1H-pyrrolizin-7a(5H)-yl)methoxy)pyrido[4,3-d]pyrimidin-4-yl)azepan-3-yl)(3-methyl-1H-pyrazol-1-yl)methanone] |
| 192 | 3770 | 2160 | 93 | 32 | 165 | CCc1c(F)ccc2cc(O)cc(-c3ncc4c(N5C[C@@H](C)N(C(=O)n6ccc(C)n6)[C@@H](C)C5)nc(OC[C@@]56CCCN5C[C@H](F)C6)nc4c3F)c12 [Example 81, ((2S,6R)-4-(7-(8-ethyl-7-fluoro-3-hydroxynaphthalen-1-yl)-8-fluoro-2-(((2R,7aS)-2-fluorotetrahydro-1H-pyrrolizin-7a(5H)-yl)methoxy)pyrido[4,3-d]pyrimidin-4-yl)-2,6-dimethylpiperazin-1-yl)(3-methyl-1H-pyrazol-1-yl)methanone] |
| > 10000 | 6480 | > 10000 | 491 | 1050 | 673 | CCc1c(F)ccc2cc(O)cc(-c3ncc4c(N5C[C@@H]6C[C@@H](C(=O)n7ccc(C)n7)[C@@H]6C5)nc(OC[C@@]56CCCN5C[C@H](F)C6)nc4c3F)c12 [Example 162, ((1R,5R,6R)-3-(7-(8-ethyl-7-fluoro-3-hydroxynaphthalen-1-yl)-8-fluoro-2-(((2R,7aS)-2-fluorotetrahydro-1H-pyrrolizin-7a(5H)-yl)methoxy)pyrido[4,3-d]pyrimidin-4-yl)-3-azabicyclo[3.2.0]heptan-6-yl)(3-methyl-1H-pyrazol-1-yl)methanone] |
| 205 | 7 | 7 | 4 | 13 | 5 | COCc1ccn(C(=O)C2CCCN(c3nc(OC[C@@]45CCCN4C[C@H](F)C5)nc4c(F)c(-c5ccc(F)c6sc(N)c(C#N)c56)c(Cl)cc34)CC2)n1 (stereo partly drawn) [Example 190, 2-amino-4-(6-chloro-8-fluoro-2-(((2R,7aS)-2-fluorotetrahydro-1H-pyrrolizin-7a(5H)-yl)methoxy)-4-(4-(3-(methoxymethyl)-1H-pyrazole-1-carbonyl)azepan-1-yl)quinazolin-7-yl)-7-fluorobenzo[b]thiophene-3-carbonitrile] |
| 3380 | 431 | 9700 | 197 | 432 | 307 | CCc1c(F)ccc2cc(O)cc(-c3ncc4c(N5CCC(C(=O)n6cc(C(C)C)cn6)CC5)nc(OC[C@@]56CCCN5C[C@H](F)C6)nc4c3F)c12 [Example 80, (1-(7-(8-ethyl-7-fluoro-3-hydroxynaphthalen-1-yl)-8-fluoro-2-(((2R,7aS)-2-fluorotetrahydro-1H-pyrrolizin-7a(5H)-yl)methoxy)pyrido[4,3-d]pyrimidin-4-yl)piperidin-4-yl)(4-isopropyl-1H-pyrazol-1-yl)methanone] |
| 360 | 104 | 13 | 16 | 170 | 6 | N#Cc1c(N)sc2c(F)ccc(-c3c(Cl)cc4c(N5CCC(C(=O)Oc6ccccc6)CC5)nc(OC[C@@]56CCCN5C[C@H](F)C6)nc4c3F)c12 [Example 287, phenyl 1-(7-(2-amino-3-cyano-7-fluorobenzo[b]thiophen-4-yl)-6-chloro-8-fluoro-2-(((2R,7aS)-2-fluorotetrahydro-1H-pyrrolizin-7a(5H)-yl)methoxy)quinazolin-4-yl)piperidine-4-carboxylate] |
| 3290 | 113 | 3080 | 17 | 15 | 51 | C#Cc1c(F)ccc2cc(O)cc(-c3ncc4c(N5CCC(C(=O)n6ccc(C)n6)CC5)nc(OC[C@@]56CCCN5C[C@H](F)C6)nc4c3F)c12 [Example 67, (1-(7-(8-ethynyl-7-fluoro-3-hydroxynaphthalen-1-yl)-8-fluoro-2-(((2R,7aS)-2-fluorotetrahydro-1H-pyrrolizin-7a(5H)-yl)methoxy)pyrido[4,3-d]pyrimidin-4-yl)piperidin-4-yl)(3-methyl-1H-pyrazol-1-yl)methanone] |

From US20260356856A1, “KRAS G12S AND G12C INHIBITORS” (MIRATI THERAPEUTICS, INC., priority 2023, published 2026)
